Measurements: paper PMC7076013 (Scientific Reports, 2020)

Legend:
A375 cells = test: Fluorescence microscopy of DAPI-stained cells, A375; type: cell-based, human; details: A375, 72 h
Description: (§1) It was observed that the wound in the control of the A375 cells decreased from 172 ± 69 μm to 127 ± 13 μm, compared to the treated cells where it stayed at 177 ± 32 μm. […] (Fig. 10A).To confirm this, the cell proliferation rate was determined after 72 h of incubation in the presence of 5 of the carboxyfluorescein succinimidyl ester (CFSE)-stained cells. […] These findings were further confirmed by fluorescence microscopy of 4′,6-diamidino-2-phenylindole (DAPI)-stained cells (Fig. 10C), for which predominantly large nuclei with scarce nucleoli characteristic for interphase were observed on treatment of A375 cells with 5[60]. In addition, sporadic oblong nuclei with condensed chromatin, typical for apoptosis, were also observed (25 ± 9%). On the other hand in the DAPI-stained 518A2 cells typical apoptotic shrunken nuclei and apoptotic bodies were dominant (60 ± 2%)[61]. The different modes of action on the two melanoma cell lines indicate that cell specific characteristics define the outcome of the treatment with 5. […] Recent data on the compensatory proliferation in response to induced apoptotic cell death in the tumor tissue even favor a nonaggressive approach in the therapy of advanced malignancy.

518A2 cells [1] = test: Fluorescence microscopy of DAPI-stained cells, 518A2; type: cell-based, human; details: 518A2, 72 h
Description: as §1

518A2 cells [2] = test: Intracellular ROS/RNS (DHR), 518A2; type: cell-based, human; details: 518A2, 48 h; untreated 70.7 ± 5.5
Description: Given that analogue 5 is designed for NO release, the intracellular release of nitric oxide and production of reactive oxygen species (ROS)/reactive nitrogen species (RNS) was measured by means of redox-sensitive dyes — 4-amino-5-methylamino-2′,7′-difluorofluorescein diacetate (DAF) and dihydrorhodamine-123 (DHR) — after exposure for 48 h (Fig. 11). […] It is well documented that highly intensified production of ROS/RNS is connected with extreme cell damage and consequent cell death, whereas moderate ROS production is involved in the regulation of intracellular processes often involved in cell cycle arrest, proliferation, and differentiation[63],[64]. Apart from the moderate intracellular NO release, it was important to evaluate whether 5 released NO extracellularly. The production of NO from a nitrate group is a three-electron reduction process that can happen by a number of possible 2e^– and 1e^– pathways, commonly involving the initial liberation of a nitrite. A common method of detecting the release of NO in the extracellular compartment is the detection of nitrite ions by the Griess reaction, which quantifies the nitrite resulting from the oxidation of NO[66],[67]. […] Introduction of a nitrate moiety was also found to be beneficial in the case of rofecoxib. […]

[3] = test system: four melanoma and four colon cancer cell lines; test: MTT and CV viability, whole panel of cell lines; type: cell-based; details: 48 h
Description: Both melanoma and colon cancer are tumor types tightly connected with inflammation, while the expression of COX-2 in the selected cell lines was highly variable. Since a lot of discrepancies were found in the literature concerning the expression of this enzyme[5],[48]–[53], both COX-1 and COX-2 expression was analyzed by Western blot. […] The cells were treated with a wide range of doses of 4a–c, 5, and 6 for 48 h and cell viability was determined by MTT (3-(4,5-dimethylthiazol-2-yl)-2,5-diphenyltetrazolium bromide) and CV (crystal violet) assays. The obtained IC50 values were similar for both assays (Table 1).
Reagents were obtained from Sigma (St. Louis, MO) unless indicated otherwise. […]
S ystems, Minneapolis, MN USA). […] After being detached b y tr ypsinization, cells were seeded in defined number as follows: 2.5 × 10^3 cells/well in 96-well plates for viability assessment and 2 × 10^4 cells/well in 24-well plates for flow cytometry. […]
Before treatment, non- adherent cells were removed. Compounds 4a- c, 5 and 6 were dissolved in DMSO and stored at −20 °C for a m onth. […]
The number of viable cel ls in culture was estimated by the MTT (3-(4,5- dimethylthiazol- 2-yl ) - 2,5- diphenyltetrazolium bromide) and CV (crystal violet) tests. Cells were incubated in the presence of compounds 4a- c, 5 and 6 for 48 h, then the viability was measured as described.4 […]

4-[4-(methylnitrooxy)phenyl]-3-(1,2-dicarba-closo-dodecaboranyl)furan-2(5 H)-one [Compound 5]
oblong nuclei with condensed chromatin, typical for apoptosis (DAPI) (A375 cells): 25 ± 9% | apoptotic shrunken nuclei and apoptotic bodies (DAPI) (518A2 cells [1]): 60 ± 2% | ROS/RNS production, mean fluorescence (DHR) (518A2 cells [2]): 65.6 ± 0.9 | effect on cell viability across tested cell lines [3]: highest decrease in cell viability in all of the melanoma cell lines
